# Literature values, collected in patent US20070142355A1, “Association of a sinus node If curent inhibitor and an angiotensin converting enzyme inhibitor, and pharmaceutical compositions containing it” (LES LABORATOIRES SERVIER, priority 2005, published 2007).
# Conditions: ivabradine alone, as generally established in clinical trials
smiles,measurement,value
"COc1cc2c(cc1OC)CC(=O)N(CCCN(C)C[C@H]1Cc3cc(OC)c(OC)cc31)CC2 [ivabradine, 3-{3-[{[(7S)-3,4-dimethoxy-bicyclo[4.2.0]octa-1,3,5-trien-7-yl]methyl}(methyl)amino]propyl}-7,8-dimethoxy-1,3,4,5-tetrahydro-2H-3-benzazepin-2-one]",slight increase in systolic arterial pressure,~1 mmHg
